Data on 19 molecules can be found in ChEMBL document CHEMBL1122407, “Synthesis and biological activity of various 3'-azido and 3'-amino analogues of 5-substituted pyrimidine deoxyribonucleosides” (1983).

Values joined by “and” are separate entries in the source; they are usually repeats but may differ in a detail not shown here. Equal values may be shown once. Active and inactive are the calls of the source. No cut-off for these calls is given here.

Experiment [1] concerns the target Deoxycytidine kinase (Mus musculus) (UniProt P43346). Description: Inhibitory activity against deoxycytidine kinase from L1210 cells. It is filed as cell-based. Set-up: concentration or dose not given beside the values; scale not given: the % may be the effect or the level left.
The test system of experiment [2] is L1210. The experiment can be described thus: In vitro inhibition against replication of L1210 murine cells. It is filed as functional. The note with it: Mus musculus, read-out: ED50 (the source's name).
In experiment [3] the test system is Sarcoma-180. The experiment can be described thus: In vitro inhibition against replication of Sarcoma-80 cells. It is filed as functional. The note with it: Mus musculus, read-out: ED50 (the source's name).
In experiment [4] the target is T1, Thymidine kinase, cytosolic (Mus musculus) (UniProt P04184).
T1 sequence (whole entry): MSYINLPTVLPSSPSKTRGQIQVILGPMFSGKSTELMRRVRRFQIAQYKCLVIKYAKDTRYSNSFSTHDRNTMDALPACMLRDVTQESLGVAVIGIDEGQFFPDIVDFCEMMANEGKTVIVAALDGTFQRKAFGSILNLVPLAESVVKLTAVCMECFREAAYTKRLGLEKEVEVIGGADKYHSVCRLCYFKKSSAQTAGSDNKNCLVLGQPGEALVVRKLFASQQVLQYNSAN
The experiment can be described thus: Inhibitory activity against thymidine kinase (TK) from L1210 cells. In kind it is cell-based. Set-up: concentration or dose not given beside the values.

For experiment [5], the system named is L1210. The experiment can be described thus: In vitro inhibition against replication of L1210 murine cells; inactive. It is filed as functional, cell-based. The note with it: Mus musculus.
For experiment [6], the system named is Sarcoma-180. The experiment can be described thus: In vitro inhibition against replication of […] cells; inactive. It is filed as functional, cell-based. The note with it: Mus musculus.

Sequence of Deoxycytidine kinase (Mus musculus) (P43346 whole entry, looked up): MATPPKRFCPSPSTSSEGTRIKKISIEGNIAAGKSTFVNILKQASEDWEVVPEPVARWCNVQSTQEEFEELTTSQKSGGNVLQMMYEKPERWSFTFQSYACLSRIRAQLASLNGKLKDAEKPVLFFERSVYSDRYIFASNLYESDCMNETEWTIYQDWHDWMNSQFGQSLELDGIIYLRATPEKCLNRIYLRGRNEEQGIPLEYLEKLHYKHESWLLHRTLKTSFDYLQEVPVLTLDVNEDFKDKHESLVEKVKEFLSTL

`[N-]=[N+]=N[C@H]1C[C@H](n2cc(C(F)(F)F)c(=O)[nH]c2=O)O[C@@H]1CO`: the Activity in experiment [1] was 91% and 85%. Moreover, the EC50 in experiment [2] came to 400 µM; in experiment [3], 100 µM.
For `[N-]=[N+]=N[C@H]1C[C@H](n2cc(F)c(N)nc2=O)O[C@@H]1CO`, the Activity in experiment [1] is 70% and 61%; in experiment [4], 88% and 103%. In experiment [2], the EC50 is 25 µM.
Turning to `N[C@@H]1C[C@H](n2cc(I)c(=O)[nH]c2=O)O[C@@H]1CO`, the Activity is 87% and 91% in experiment [1]; 95% and 71% in experiment [4]. The EC50 in experiment [2] was 400 µM.
`Cc1cn([C@H]2C[C@H](N=[N+]=[N-])[C@@H](CO)O2)c(=O)nc1N`: the Activity in experiment [1] was 62% and 55%; in experiment [4], 92% and 81%. The ED50 entry in experiment [5] and in experiment [6] was “inactive” throughout.
For the molecule `O=c1[nH]c(=O)n([C@H]2C[C@H](O)[C@@H](CO)O2)cc1I`, the Activity in experiment [1] was 87% and 97%.
On to `Cc1cn([C@H]2C[C@H](N)[C@@H](CO)O2)c(=O)[nH]c1=O`, for which the Activity in experiment [1] was 96% and 87%; in experiment [4], 95% and 72%.
Take `O=c1ccn([C@H]2C[C@H](O)[C@@H](CO)O2)c(=O)[nH]1`: in experiment [1], the Activity was 88% and 92%.
Turning to `Cc1cn([C@H]2C[C@@H](N)[C@@H](CF)O2)c(=O)[nH]c1=O`, the Activity in experiment [1] is 91% and 88%; in experiment [4], 89% and 83%. Besides, the ED50 result in experiment [5] and in experiment [6] was “inactive” in each case.
For the molecule `Cc1cn([C@H]2C[C@@H](N)[C@@H](CO)O2)c(=O)nc1N`, the Activity is 90% and 82% in experiment [1]; 93% and 80% in experiment [4]. Also, the figures for the EC50 in experiment [2] and in experiment [3] were 25 µM and 20 µM, respectively.
Turning to `Cc1cn([C@H]2C[C@@H](N=[N+]=[N-])[C@@H](CF)O2)c(=O)[nH]c1=O`, the Activity in experiment [1] was 93% and 89%; in experiment [4], 93% and 95%. Further, the ED50 result in experiment [5] and in experiment [6] was “inactive” in each case.
As for `[N-]=[N+]=N[C@H]1C[C@H](n2cc(F)c(=O)[nH]c2=O)O[C@@H]1CO`, the Activity was 94% and 89% in experiment [1]; 78% and 71% in experiment [4]. Besides, the EC50 was determined as 20 µM in experiment [2] and 40 µM in experiment [3].
On to `Nc1ccn([C@H]2C[C@H](N)[C@@H](CO)O2)c(=O)n1`, for which the Activity in experiment [1] is 89% and 85%; in experiment [4], 77% and 84%. Besides, the EC50 amounted to 0.7 µM in experiment [2] and 4 µM in experiment [3].
As to `N[C@@H]1C[C@H](n2cc(F)c(=O)[nH]c2=O)O[C@@H]1CO`, the Activity in experiment [1] was 93%; in experiment [4] it was 92% and 82%. Besides, the EC50 in experiment [2] was found to be 15 µM; in experiment [3] it was 1 µM.
As for `[N-]=[N+]=N[C@H]1C[C@H](n2ccc(=O)[nH]c2=O)O[C@@H]1CO`, the Activity in experiment [1] came out at 92%. The ED50 entry in experiment [5] and in experiment [6] was “inactive” throughout.
Turning to `N[C@H]1C[C@H](n2ccc(=O)[nH]c2=O)O[C@@H]1CO`, the Activity in experiment [1] was 97% and 94%. The EC50 in experiment [2] came to 18 µM; in experiment [3], 50 µM.
Turning to `[N-]=[N+]=N[C@H]1C[C@H](n2ccc(N)nc2=O)O[C@@H]1CO`, the Activity in experiment [1] is 86% and 78%; in experiment [4], 85% and 72%. Further, the ED50 entry in experiment [5] and in experiment [6] was “inactive” in each case.
As to `N[C@@H]1C[C@H](n2cc(C(F)(F)F)c(=O)[nH]c2=O)O[C@@H]1CO`, the Activity was 101% and 87% in experiment [1]; 81% and 61% in experiment [4]. Moreover, the EC50 in experiment [2] is 150 µM; in experiment [3], 100 µM.
For `Cc1cn([C@H]2C[C@H](N=[N+]=[N-])[C@@H](CO)O2)c(=O)[nH]c1=O`, in experiment [1], the Activity was 89% and 84%.
For `Nc1nc(=O)n([C@H]2C[C@@H](N)[C@@H](CO)O2)cc1F`, the Activity was 82% and 73% in experiment [1]; 81% and 70% in experiment [4]. The results for the EC50 in experiment [2] and in experiment [3] were 10 µM and 1 µM, respectively.
